Consider three compounds from patent publication US5811462A, “HIV Protease inhibitors useful for the treatment of AIDS” (Merck & Co., Inc., priority 1997, dated 1998).

Structures are written as SMILES.

What is called IC50 is the concentration at which inhibition is half-maximal. Higher therefore signals lower potency.

For the assay, the target named is T1, HIV Protease (Human immunodeficiency virus type 1 group M subtype B, UniProt P04585).
T1 construct: the protease expressed in Eschericia coli; made in house; host or cells: Escherichia coli
The assay can be described thus: Inhibition of microbial expressed HIV protease (peptide substrate cleavage, HPLC of products). The conditions noted are these: protease expressed in Eschericia coli, pH 5.5, 30° C., 1 hour. It is filed as biochemical. As for the experimental part:
Assay for Inhibition of Microbial Expressed HIV Protease
Inhibition studies of the reaction of the protease expressed in Eschericia coli with a peptide substrate [Val-Ser-Gln-Asn-(betanapthyl)Ala-Pro-Ile-Val, 0.5 mg/mL at the time the reaction is initiated] were in 50 mM Na acetate, pH 5.5, at 30° C. for 1 hour. Various concentrations of inhibitor in 1.0 μl DMSO were added to 25 μl of the peptide solution in water. The reaction is initiated by the addition of 15 μl of 0.33 nM protease (0.11 ng) in a solution of 0.133M Na acetate pH 5.5 and 0.1% bovine serum albumin. The reaction was quenched with 160 μl of 5% phosphoric acid. Products of the reaction were separated by HPLC (VYDAC wide pore 5 cm C-18 reverse phase, acetonitrile gradient, 0.1% phosphoric acid). The extent of inhibition of the reaction was determined from the peak heights of the products.
As for `O=C(N[C@H]1c2ccccc2C[C@H]1O)[C@H](Cc1ccccc1)C[C@H](O)CNC(=O)[C@H]1[C@H](C(=O)NCCc2ccccc2)[C@@H]2C=C[C@H]1C2` [A], the IC50 is 0.055 nM.
`CC(C)(C)NC(=O)[C@H]1[C@H](C(=O)NC[C@@H](O)C[C@@H](Cc2ccccc2)C(=O)N[C@H]2c3ccccc3C[C@H]2O)[C@H]2C=C[C@@H]1C2` [B] registered a half-maximal inhibitory concentration (IC50) of 82.8 nM.
Regarding `O=C(N[C@H]1c2ccccc2C[C@H]1O)[C@H](Cc1ccccc1)C[C@H](O)CNC(=O)[C@H]1[C@H](C(=O)N(Cc2ccccc2)Cc2ccccc2)[C@@H]2C=C[C@H]1C2` [C], inhibition was half-maximal at 0.025 nM (IC50).
